Assay in all cases: KINOMEscan competition binding
What all share (conditions): compound 10.0 µM

The test system of experiment [1] is PIK3CA (human), P42336 [M1043I].
The test system of experiment [2] is MET (human), P08581 [M1250T].
Experiment [3] deals with LRRK2 (human), Q5S007 [G2019S].
The subject of experiment [4] is FGFR3 (human), P22607 [G697C].
Experiment [5] concerns BMX (human), P51813 [V600E].
For experiment [6], the system named is PIK3CA (human), P42336 [E542K].
The test system of experiment [7] is KIT (human), P10721 [D816H].
In experiment [8] the test system is RET (human), P07949 [V804L].
The subject of experiment [9] is PIK3CA (human), P42336 [H1047L].
Experiment [10] has as its system KIT (human), P10721 [A829P].
The subject of experiment [11] is ABL1 (human), P00519 [F317L].
The test system of experiment [12] is EGFR (human), P00533 [A750P; 747-749 del].
Experiment [13] concerns EGFR (human), P00533 [G719C].
Experiment [14] concerns FLT3 (human), P36888 [D835Y].
The subject of experiment [15] is EGFR (human), P00533 [L858R].

Drawing on the kinase profiling compilation of Christmann-Franck et al. (2016), this text covers kinase still bound, per cent of control for eleven molecules.

Chain of RET (human), P07949 [V804L] (P07949 whole entry V804L, looked up): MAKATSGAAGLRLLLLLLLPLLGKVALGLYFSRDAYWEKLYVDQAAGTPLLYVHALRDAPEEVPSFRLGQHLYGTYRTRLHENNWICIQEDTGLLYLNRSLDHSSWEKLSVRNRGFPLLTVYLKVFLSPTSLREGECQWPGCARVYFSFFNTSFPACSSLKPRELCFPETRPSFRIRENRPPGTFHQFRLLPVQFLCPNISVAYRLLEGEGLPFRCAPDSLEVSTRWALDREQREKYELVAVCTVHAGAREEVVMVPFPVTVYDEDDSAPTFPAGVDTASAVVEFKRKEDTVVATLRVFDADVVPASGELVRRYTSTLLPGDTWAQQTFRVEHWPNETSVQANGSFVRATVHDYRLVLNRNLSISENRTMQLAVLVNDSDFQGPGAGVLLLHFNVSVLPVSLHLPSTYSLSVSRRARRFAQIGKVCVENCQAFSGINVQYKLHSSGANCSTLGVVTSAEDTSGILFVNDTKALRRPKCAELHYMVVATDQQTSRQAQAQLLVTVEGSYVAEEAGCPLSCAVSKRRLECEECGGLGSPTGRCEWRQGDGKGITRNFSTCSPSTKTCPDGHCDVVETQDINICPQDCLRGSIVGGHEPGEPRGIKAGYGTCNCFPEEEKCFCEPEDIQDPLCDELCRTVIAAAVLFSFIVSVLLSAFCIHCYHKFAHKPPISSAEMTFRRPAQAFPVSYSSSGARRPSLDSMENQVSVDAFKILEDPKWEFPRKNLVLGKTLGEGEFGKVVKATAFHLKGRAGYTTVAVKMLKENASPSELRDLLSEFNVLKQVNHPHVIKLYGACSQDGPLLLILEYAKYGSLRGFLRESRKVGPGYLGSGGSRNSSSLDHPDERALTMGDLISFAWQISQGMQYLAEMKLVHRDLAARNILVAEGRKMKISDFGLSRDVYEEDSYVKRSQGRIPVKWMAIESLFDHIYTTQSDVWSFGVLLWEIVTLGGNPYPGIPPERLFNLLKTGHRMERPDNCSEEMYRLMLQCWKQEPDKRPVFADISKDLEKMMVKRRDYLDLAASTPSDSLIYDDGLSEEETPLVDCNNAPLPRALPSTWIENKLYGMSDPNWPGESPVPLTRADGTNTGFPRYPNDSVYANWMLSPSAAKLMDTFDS
Chain of BMX (human), P51813 [V600E] (P51813 whole entry, looked up, stated change not applied): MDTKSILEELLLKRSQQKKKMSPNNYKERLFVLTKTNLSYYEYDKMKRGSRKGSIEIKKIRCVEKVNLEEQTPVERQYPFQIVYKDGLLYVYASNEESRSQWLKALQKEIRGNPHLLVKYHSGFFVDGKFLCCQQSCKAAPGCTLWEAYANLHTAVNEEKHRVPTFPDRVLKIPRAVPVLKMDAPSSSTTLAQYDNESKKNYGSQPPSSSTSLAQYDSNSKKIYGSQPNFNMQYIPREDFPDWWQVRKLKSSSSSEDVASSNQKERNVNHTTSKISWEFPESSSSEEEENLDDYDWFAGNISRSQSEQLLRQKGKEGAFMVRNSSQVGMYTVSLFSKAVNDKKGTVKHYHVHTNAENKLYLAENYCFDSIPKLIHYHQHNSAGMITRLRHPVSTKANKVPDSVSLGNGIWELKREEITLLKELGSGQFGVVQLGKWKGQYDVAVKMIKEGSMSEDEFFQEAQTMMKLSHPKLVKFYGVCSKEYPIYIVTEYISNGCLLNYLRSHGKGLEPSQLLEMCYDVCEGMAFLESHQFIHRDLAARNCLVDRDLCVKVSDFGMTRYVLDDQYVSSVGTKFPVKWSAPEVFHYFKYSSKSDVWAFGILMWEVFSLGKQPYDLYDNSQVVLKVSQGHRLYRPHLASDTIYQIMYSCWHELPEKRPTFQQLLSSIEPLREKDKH
Chain of PIK3CA (human), P42336 [H1047L] (P42336 whole entry H1047L, looked up): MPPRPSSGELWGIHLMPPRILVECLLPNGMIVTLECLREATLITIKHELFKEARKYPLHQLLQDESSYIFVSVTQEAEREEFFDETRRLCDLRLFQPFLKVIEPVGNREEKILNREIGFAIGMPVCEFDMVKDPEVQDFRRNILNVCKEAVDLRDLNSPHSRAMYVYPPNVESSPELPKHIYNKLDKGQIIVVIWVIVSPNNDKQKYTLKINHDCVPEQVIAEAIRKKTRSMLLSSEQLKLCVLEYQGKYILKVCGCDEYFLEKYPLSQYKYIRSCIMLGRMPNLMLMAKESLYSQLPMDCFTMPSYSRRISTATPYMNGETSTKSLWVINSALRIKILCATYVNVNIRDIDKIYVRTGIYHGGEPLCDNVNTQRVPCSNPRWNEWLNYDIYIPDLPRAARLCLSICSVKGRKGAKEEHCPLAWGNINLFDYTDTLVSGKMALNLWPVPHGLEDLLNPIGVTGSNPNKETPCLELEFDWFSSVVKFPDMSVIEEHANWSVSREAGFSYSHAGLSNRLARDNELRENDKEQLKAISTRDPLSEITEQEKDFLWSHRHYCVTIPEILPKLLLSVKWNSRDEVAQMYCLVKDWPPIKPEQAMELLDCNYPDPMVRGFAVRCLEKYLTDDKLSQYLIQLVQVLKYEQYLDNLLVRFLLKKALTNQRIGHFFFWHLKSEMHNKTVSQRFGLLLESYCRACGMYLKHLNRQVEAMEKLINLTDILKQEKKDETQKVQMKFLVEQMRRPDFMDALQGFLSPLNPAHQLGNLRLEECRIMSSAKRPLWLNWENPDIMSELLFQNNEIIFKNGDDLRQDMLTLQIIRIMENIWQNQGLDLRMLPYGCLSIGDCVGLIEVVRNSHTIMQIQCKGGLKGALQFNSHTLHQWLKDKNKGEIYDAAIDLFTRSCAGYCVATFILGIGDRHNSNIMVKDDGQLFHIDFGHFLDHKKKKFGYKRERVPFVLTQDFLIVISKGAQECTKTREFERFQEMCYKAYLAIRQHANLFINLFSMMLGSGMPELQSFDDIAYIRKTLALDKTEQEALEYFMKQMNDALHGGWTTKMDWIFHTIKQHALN
Chain of PIK3CA (human), P42336 [E542K] (P42336 whole entry E542K, looked up): as the sequence (P42336 whole entry H1047L, looked up) above, with E542K, L1047H counted along it
Chain of FGFR3 (human), P22607 [G697C] (P22607 whole entry G697C, looked up): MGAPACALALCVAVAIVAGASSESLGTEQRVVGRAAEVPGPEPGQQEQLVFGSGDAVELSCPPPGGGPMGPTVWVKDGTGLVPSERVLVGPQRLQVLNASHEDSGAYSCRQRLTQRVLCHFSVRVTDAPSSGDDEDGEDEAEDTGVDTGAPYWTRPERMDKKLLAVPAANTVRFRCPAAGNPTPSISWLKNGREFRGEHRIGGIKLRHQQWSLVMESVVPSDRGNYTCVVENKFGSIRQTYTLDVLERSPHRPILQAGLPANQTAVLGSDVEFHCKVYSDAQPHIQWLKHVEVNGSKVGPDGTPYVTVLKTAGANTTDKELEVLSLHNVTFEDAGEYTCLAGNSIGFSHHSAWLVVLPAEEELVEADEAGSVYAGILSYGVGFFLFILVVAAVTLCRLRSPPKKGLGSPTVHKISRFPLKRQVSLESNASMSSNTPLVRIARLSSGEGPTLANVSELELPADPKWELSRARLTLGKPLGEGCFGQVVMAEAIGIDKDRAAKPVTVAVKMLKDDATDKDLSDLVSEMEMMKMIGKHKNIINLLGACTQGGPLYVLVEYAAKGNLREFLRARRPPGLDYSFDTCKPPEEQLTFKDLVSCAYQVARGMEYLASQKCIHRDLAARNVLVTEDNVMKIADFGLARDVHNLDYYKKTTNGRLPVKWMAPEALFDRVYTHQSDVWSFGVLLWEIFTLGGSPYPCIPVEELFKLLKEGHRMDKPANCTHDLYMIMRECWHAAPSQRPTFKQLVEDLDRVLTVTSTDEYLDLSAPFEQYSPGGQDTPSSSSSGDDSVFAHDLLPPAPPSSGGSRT
Chain of KIT (human), P10721 [A829P] (P10721 whole entry A829P, looked up): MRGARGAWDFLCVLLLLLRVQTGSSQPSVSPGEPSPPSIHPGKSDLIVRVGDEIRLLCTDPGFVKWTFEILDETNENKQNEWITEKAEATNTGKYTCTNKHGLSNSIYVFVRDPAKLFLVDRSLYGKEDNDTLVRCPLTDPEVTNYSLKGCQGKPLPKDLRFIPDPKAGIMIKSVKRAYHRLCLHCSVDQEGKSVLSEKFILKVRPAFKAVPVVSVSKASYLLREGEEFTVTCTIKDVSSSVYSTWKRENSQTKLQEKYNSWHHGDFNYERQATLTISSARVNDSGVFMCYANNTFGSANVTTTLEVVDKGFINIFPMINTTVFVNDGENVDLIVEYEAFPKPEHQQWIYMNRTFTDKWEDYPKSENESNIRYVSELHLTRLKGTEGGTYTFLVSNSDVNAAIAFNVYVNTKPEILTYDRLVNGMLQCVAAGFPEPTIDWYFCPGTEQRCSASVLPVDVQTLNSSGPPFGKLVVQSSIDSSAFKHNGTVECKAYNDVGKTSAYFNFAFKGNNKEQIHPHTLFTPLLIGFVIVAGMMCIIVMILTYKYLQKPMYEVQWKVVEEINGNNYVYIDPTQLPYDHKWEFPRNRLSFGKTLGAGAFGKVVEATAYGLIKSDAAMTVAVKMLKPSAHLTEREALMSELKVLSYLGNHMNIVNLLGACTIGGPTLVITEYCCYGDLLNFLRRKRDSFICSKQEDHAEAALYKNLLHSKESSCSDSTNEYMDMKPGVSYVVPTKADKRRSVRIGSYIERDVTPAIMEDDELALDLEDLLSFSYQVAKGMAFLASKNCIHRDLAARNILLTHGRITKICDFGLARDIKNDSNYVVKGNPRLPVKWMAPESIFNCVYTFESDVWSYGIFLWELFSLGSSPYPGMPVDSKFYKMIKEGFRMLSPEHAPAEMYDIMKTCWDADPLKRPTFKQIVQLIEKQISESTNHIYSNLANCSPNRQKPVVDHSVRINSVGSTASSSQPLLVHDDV
Chain of KIT (human), P10721 [D816H] (P10721 whole entry D816H, looked up): as the sequence (P10721 whole entry A829P, looked up) above, with D816H, P829A counted along it
Chain of PIK3CA (human), P42336 [M1043I] (P42336 whole entry M1043I, looked up): as the sequence (P42336 whole entry H1047L, looked up) above, with M1043I, L1047H counted along it

As to `CCOc1cc2ncc(C#N)c(Nc3ccc(OCc4ccccn4)c(Cl)c3)c2cc1NC(=O)/C=C/CN(C)C`, the kinase still bound, per cent of control in experiment [1] came to 100%; in experiment [2], 47%; in experiment [3] it was 85%; in [4] it was 100%; in experiment [5], 100%; in [6], 100%. Moreover, the kinase still bound, per cent of control in experiment [7] was found to be 88%; in experiment [8] it was 100%; in experiment [9], 100%; in [10], 100%; in [11] it was 100%.

As for `COc1ccc(N(C(=O)Oc2c(C)cccc2C)c2ccnc(Nc3ccc(N4CCN(C)CC4)cc3)n2)c(OC)c1`, the kinase still bound, per cent of control in experiment [12] is 1%; in experiment [13], 0.25%; in experiment [1] it was 99%; in [2] it was 5.4%; in [3] it was 84%; in experiment [4], 2.6%. The kinase still bound, per cent of control in experiment [5] stood at 38%; in [6], 100%; in experiment [14], 5.2%; in experiment [7], 44%; in experiment [15] it was 0%; in [8] it was 85%. The figures for the kinase still bound, per cent of control in experiment [9] and in [10] were 100% and 56%, respectively.

On to `O=C1Nc2ccc(I)cc2/C1=C/c1cc(Br)c(O)c(Br)c1`, for which the kinase still bound, per cent of control in experiment [12] came to 36%; in experiment [13], 80%; in experiment [1] it was 76%; in [2] it was 80%; in experiment [3], 9%; in [4], 76%. Also, the kinase still bound, per cent of control in experiment [5] amounted to 0.1%; in experiment [6], 84%; in [14] it was 13%; in experiment [7], 99%; in [15], 32%; in experiment [8], 100%. The kinase still bound, per cent of control in experiment [9] is 97%; in experiment [10], 93%.

`O=C1NC(=O)/C(=C/c2ccc3nccc(-c4ccncc4)c3c2)S1`: the kinase still bound, per cent of control in experiment [12] was 47%; in [13], 54%; in [1], 0%; in experiment [2], 40%; in experiment [3], 58%; in experiment [4], 100%. The kinase still bound, per cent of control in experiment [5] came out at 41%; in [6], 0.2%; in experiment [14] it was 28%; in experiment [7] it was 89%; in [15], 43%; in [8] it was 100%. The results for the kinase still bound, per cent of control in [9] and in experiment [10] were 27% and 88%, respectively.

Turning to `CCN1CCN(Cc2ccc(Nc3ncc4c(n3)N(C)c3ccccc3C(=O)N4C)cc2C(F)(F)F)CC1`, the kinase still bound, per cent of control in experiment [12] is 79%; in experiment [13], 89%; in [1] it was 15%; in [2], 71%; in experiment [3], 18%; in [4] it was 31%. The kinase still bound, per cent of control amounted to 100% in experiment [5]; 24% in [6]; 3.5% in experiment [14]; 65% in experiment [7]; 76% in experiment [15]; 0.9% in experiment [8]. The kinase still bound, per cent of control in experiment [9] was 1.8%; in [10] it was 59%.

With `C=CC(=O)Nc1cc(-n2c(=O)ccc3cnc4ccc(-c5cn[nH]c5)cc4c32)ccc1C`, the kinase still bound, per cent of control worked out at 26% in [12]; 100% in [13]; 15% in [1]; 80% in [2]; 6.4% in experiment [3]; 74% in [4]. Moreover, the kinase still bound, per cent of control worked out at 91% in [5]; 20% in experiment [6]; 1.2% in experiment [14]; 14% in experiment [7]; 41% in experiment [15]; 79% in [8]. For the same molecule, the kinase still bound, per cent of control in experiment [9] came to 4.6%; in experiment [10] it was 36%.

With `Cc1ccc(NC(=O)c2cccc(C(C)(C)C#N)c2)cc1Nc1ccc2ncn(C)c(=O)c2c1`, the kinase still bound, per cent of control amounted to 11% in experiment [12]; 49% in experiment [13]; 89% in experiment [1]; 64% in experiment [2]; 69% in experiment [3]; 100% in experiment [4]. Further, the kinase still bound, per cent of control in experiment [5] was determined as 0%; in [6], 100%; in experiment [14] it was 100%; in [7] it was 57%; in experiment [15], 48%; in [8], 31%. In addition, the kinase still bound, per cent of control in experiment [9] and in experiment [10] was 100% in each case.

For `O=C(Nc1cccc(Nc2ncc(Br)c(NCCc3cnc[nH]3)n2)c1)N1CCCC1`, the kinase still bound, per cent of control is 41% in experiment [12]; 24% in experiment [13]; 95% in [1]; 4.6% in [2]; 8.4% in experiment [3]; 0.8% in experiment [4]. Moreover, the kinase still bound, per cent of control in [5] was 62%; in experiment [6] it was 100%; in experiment [14], 0.1%; in experiment [7], 11%; in [15], 65%; in experiment [8], 0.15%. In addition, the kinase still bound, per cent of control in [9] stood at 59%; in [10], 28%.

On to `O=c1cc(N2CCOCC2)oc2c(-c3cccc4c3sc3ccccc34)cccc12`, for which the kinase still bound, per cent of control in experiment [12] is 91%; in experiment [13] it was 100%; in experiment [1] it was 17%; in [2], 67%; in experiment [3], 100%; in experiment [4], 94%. Further, the kinase still bound, per cent of control in experiment [5] stood at 95%; in experiment [6] it was 27%; in experiment [14], 79%; in experiment [7], 100%; in experiment [15] it was 89%; in experiment [8], 100%. The kinase still bound, per cent of control was determined as 4.4% in experiment [9] and 96% in experiment [10].

On to `O=C(NC1CC1)c1cccc(-c2ccc3c(NC(=O)C4CC4)n[nH]c3c2)c1`, for which the kinase still bound, per cent of control was found to be 82% in experiment [12]; 73% in experiment [13]; 92% in experiment [1]; 73% in experiment [2]; 87% in experiment [3]; 100% in [4]. Also, the kinase still bound, per cent of control is 65% in experiment [5]; 100% in [6]; 15% in experiment [14]; 75% in experiment [7]; 93% in experiment [15]; 96% in experiment [8]. Besides, the kinase still bound, per cent of control in [9] is 98%; in [10] it was 76%.

Consider `CN(C)C/C=C/C(=O)Nc1ccc(C(=O)Nc2cccc(Nc3nccc(-c4cccnc4)n3)c2)cc1`, for which the kinase still bound, per cent of control stood at 100% in experiment [12]; 83% in experiment [13]; 100% in experiment [1]; 100% in experiment [2]; 76% in experiment [3]; 84% in experiment [4]. Also, the kinase still bound, per cent of control in experiment [5] came out at 63%; in [6], 100%; in experiment [14], 18%; in experiment [7], 51%; in experiment [15], 99%; in experiment [8], 84%. The values for the kinase still bound, per cent of control in [9] and in experiment [10] were 100% and 64%, respectively.
